Source: PubChem BioAssay AID328 (DTP/NCI, 2004)
Where “and” joins values, the source holds several entries; their conditions need not be identical. Equal values may be shown once. Inconclusive results and toxic doses are left out.

Test system: BDF1 mice, P388 leukemia ip, median survival T/C
Experiment: NCI In Vivo Anticancer Drug Screen. Data for tumor model P388 Leukemia (intraperitoneal) in B6D2F1 (BDF1) mice
Conditions: endpoint: median survival time, higher = longer survival
Method in brief: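 Reported as T/C, where T is the survival measurement in dosed animals and C the same measurement in vehicle controls.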

[1] = dose: 12.5 mg/kg/injection, schedule: Q01DX009 (ip), vehicle: saline with Tween-80
[2] = dose: 25.0 mg/kg/injection, schedule: Q01DX009 (ip), vehicle: saline with Tween-80
[3] = dose: 50.0 mg/kg/injection, schedule: Q01DX009 (ip), vehicle: saline with Tween-80
[4] = dose: 100.0 mg/kg/injection, schedule: Q01DX009 (ip), vehicle: saline with Tween-80
[5] = dose: 200.0 mg/kg/injection, schedule: Q01DX009 (ip), vehicle: saline with Tween-80
[6] = dose: 1.25 mg/kg/injection, schedule: Q01DX010 (ip), vehicle: saline
[7] = dose: 100.0 mg/kg/injection, schedule: Q04DX003 (ip), vehicle: Klucel (hydroxypropylcellulose) (HPC)
[8] = dose: 200.0 mg/kg/injection, schedule: Q04DX003 (ip), vehicle: Klucel (hydroxypropylcellulose) (HPC)
[9] = dose: 100.0 mg/kg/injection, schedule: Q04DX003 (ip), vehicle: saline with Tween-80
[10] = dose: 200.0 mg/kg/injection, schedule: Q04DX003 (ip), vehicle: saline with Tween-80
[11] = dose: 6.25 mg/kg/injection, schedule: Q01DX009 (ip), vehicle: saline with Tween-80

In the case of `COc1ccc(NC(=S)Nc2ccccn2)cc1`, the T/C [1] is reported as 100 % of control, the T/C [2] is reported as 100 % of control and the T/C [3] is reported as 104 % of control. For the same molecule, the T/C (dose: 100.0 mg/kg/injection, schedule: Q01DX001 (ip), vehicle: saline) was 103 % of control, the T/C [4] was 100 % of control and the T/C (dose: 200.0 mg/kg/injection, schedule: Q01DX001 (ip), vehicle: saline) was 111 % of control. The T/C [5] was 96 % of control, the T/C (dose: 400.0 mg/kg/injection, schedule: Q01DX001 (ip), vehicle: saline) was 107 % of control and the T/C (dose: 400.0 mg/kg/injection, schedule: Q01DX009 (ip), vehicle: saline with Tween-80) was 104 % of control.

For `C=C(C)C(=O)OCC1CO1` (centres undefined), the T/C (dose: 25.0 mg/kg/injection, schedule: Q01DX009 (ip), vehicle: water) was 112 % of control, the T/C (dose: 50.0 mg/kg/injection, schedule: Q01DX009 (ip), vehicle: water) was 96 % of control and the T/C (dose: 50.0 mg/kg/injection, schedule: Q01DX010 (ip), vehicle: saline) was 100 % of control. For the same molecule, the T/C (dose: 100.0 mg/kg/injection, schedule: Q01DX009 (ip), vehicle: water) was 99 % of control, the T/C (dose: 100.0 mg/kg/injection, schedule: Q01DX010 (ip), vehicle: saline) was 100 % of control and the T/C (dose: 200.0 mg/kg/injection, schedule: Q01DX009 (ip), vehicle: water) was 122 % of control. The T/C (dose: 200.0 mg/kg/injection, schedule: Q01DX010 (ip), vehicle: saline) was 104 % of control.

`O=C1OCC/C1=C1/Nc2ccccc2NC1=O` was tested, and the T/C [1] was 105 % of control, the T/C [2] was 100 % of control and the T/C [3] was 96 % of control.

For `c1ccc(C[n+]2ccc(-c3cc[n+](Cc4ccccc4)cc3)cc2)cc1`, the T/C [6] was 86 % of control, the T/C (dose: 156.0 micrograms/kg/injection, schedule: Q01DX010 (ip), vehicle: saline) was 104 % of control and the T/C (dose: 313.0 micrograms/kg/injection, schedule: Q01DX010 (ip), vehicle: saline) was 104 % of control. The T/C (dose: 625.0 micrograms/kg/injection, schedule: Q01DX010 (ip), vehicle: saline) was 104 % of control.

With `[O-]c1on[n+](C2CCCCC2)c1-c1ccccc1` the T/C (dose: 50.0 mg/kg/injection, schedule: Q04DX003 (ip), vehicle: Klucel (hydroxypropylcellulose) (HPC)) was 105 % of control, the T/C (dose: 100.0 mg/kg/injection, schedule: Q01DX001 (ip), vehicle: Klucel (hydroxypropylcellulose) (HPC)) was 109 % of control and the T/C [4] was 92 % of control. For the same molecule, the T/C [7] was 100 % of control, the T/C (dose: 200.0 mg/kg/injection, schedule: Q01DX001 (ip), vehicle: Klucel (hydroxypropylcellulose) (HPC)) was 104 % of control and the T/C [5] was 92 % of control. For the same molecule, the T/C [8] was 100 % of control and the T/C (dose: 400.0 mg/kg/injection, schedule: Q01DX001 (ip), vehicle: Klucel (hydroxypropylcellulose) (HPC)) was 100 % of control.

For `COc1c(Br)cc(/C=C(/C)[N+](=O)[O-])cc1Br`, the T/C [9] was 114 % of control and the T/C [10] was 160 % of control.

`O=c1[nH]c(=O)n(C2CC(O)C(CO)O2)cc1C(F)(F)F` (centres undefined) was tested, and the T/C (dose: 62.5 mg/kg/injection, schedule: Q01DX009 (ip), vehicle: Klucel (hydroxypropylcellulose) (HPC)) was 104 % of control, the T/C (dose: 125.0 mg/kg/injection, schedule: Q01DX009 (ip), vehicle: Klucel (hydroxypropylcellulose) (HPC)) was 118 % of control and the T/C (dose: 250.0 mg/kg/injection, schedule: Q01DX009 (ip), vehicle: Klucel (hydroxypropylcellulose) (HPC)) was 122 % of control. For the same molecule, the T/C (dose: 500.0 mg/kg/injection, schedule: Q01DX009 (ip), vehicle: Klucel (hydroxypropylcellulose) (HPC)) was 90 % of control.

In the case of `N#CCC(=O)O`, the T/C (dose: 18.75 mg/kg/injection, schedule: Q01DX009 (ip), vehicle: saline with Tween-80) is reported as 100 % of control, the T/C (dose: 37.5 mg/kg/injection, schedule: Q01DX009 (ip), vehicle: saline with Tween-80) is reported as 100 % of control and the T/C (dose: 75.0 mg/kg/injection, schedule: Q01DX009 (ip), vehicle: saline with Tween-80) is reported as 90 % of control.

With `O=C(O)c1cc(C(=O)O)cc(S(=O)(=O)F)c1` the T/C (dose: 75.0 mg/kg/injection, schedule: Q04DX003 (ip), vehicle: saline with Tween-80) was 104 % of control, the T/C [4] was 105 % of control and the T/C (dose: 150.0 mg/kg/injection, schedule: Q04DX003 (ip), vehicle: saline with Tween-80) was 108 % of control. For the same molecule, the T/C [5] was 95 % of control and the T/C (dose: 300.0 mg/kg/injection, schedule: Q04DX003 (ip), vehicle: saline with Tween-80) was 104 % of control.

`NC(=S)/N=C\C(CC(O)C(O)C(O)CO)=N\NC(N)=S` (centres undefined) was tested, and the T/C [11] was 88 % of control and 97 % of control and 100 % of control, the T/C [1] was 99 % of control and 100 % of control and 108 % of control and the T/C [3] was 97 % of control and 115 % of control.

For `CCOC(=O)N1CCN(CCCCCOc2ccccc2C2CCCCC2)CC1`, the T/C [3] was 111 % of control and the T/C [4] was 120 % of control.

With `C1CSCCO1.[Cu+2].[O-][Cl+3]([O-])([O-])O` the T/C (dose: 6.25 mg/kg/injection, schedule: Q04DX003 (ip), vehicle: saline with Tween-80) was 97 % of control, the T/C (dose: 12.5 mg/kg/injection, schedule: Q04DX003 (ip), vehicle: saline with Tween-80) was 99 % of control and the T/C (dose: 25.0 mg/kg/injection, schedule: Q04DX003 (ip), vehicle: saline with Tween-80) was 108 % of control.

With `CN(C)C(=O)Nc1ccc(Cl)cc1` the T/C (dose: 50.0 mg/kg/injection, schedule: Q01DX001 (ip), vehicle: saline with Tween-80) was 95 % of control, the T/C (dose: 100.0 mg/kg/injection, schedule: Q01DX001 (ip), vehicle: saline with Tween-80) was 100 % of control and the T/C (dose: 200.0 mg/kg/injection, schedule: Q01DX001 (ip), vehicle: saline with Tween-80) was 104 % of control.

`COc1ccc2c(c1)CCC1C2CCC2(C)/C(=N/O)C3OC3C12` (centres undefined) was tested, and the T/C [3] was 121 % of control, the T/C [4] was 111 % of control and the T/C [5] was 111 % of control.

`O=[N+]([O-])/C=C/c1ccc(O)cc1` was tested, and the T/C [11] was 100 % of control, the T/C [1] was 102 % of control and the T/C [2] was 110 % of control. The T/C [3] was 107 % of control.

`C=C1C(C2(C)C(OC(C)=O)CC(=O)OC(C)(COC(C)=O)C2CC(=O)OC)C(OC=O)C(OC(=O)C(O)C(C)CC)C2(C)C(c3ccoc3)CC(=O)C12O` (centres undefined) was tested, and the T/C (dose: 3.75 mg/kg/injection, schedule: Q01DX009 (ip), vehicle: Klucel (hydroxypropylcellulose) (HPC)) was 94 % of control and the T/C (dose: 7.5 mg/kg/injection, schedule: Q01DX009 (ip), vehicle: Klucel (hydroxypropylcellulose) (HPC)) was 93 % of control.

`Nc1ncnc2c1ccn2C1OC2COP(=O)(O)OC2C1O` (centres undefined) was tested, and the T/C (dose: 0.63 mg/kg/injection, schedule: Q01DX010 (ip), vehicle: saline) was 100 % of control, the T/C [6] was 110 % of control and the T/C (dose: 5.0 mg/kg/injection, schedule: Q01DX010 (ip), vehicle: saline) was 150 % of control.

`CC(C)OC(CCC#N)c1ccccc1` (centres undefined) was tested, and the T/C (dose: 100.0 mg/kg/injection, schedule: Q01DX009 (ip), vehicle: Klucel (hydroxypropylcellulose) (HPC)) was 100 % of control, the T/C [7] was 95 % of control and the T/C (dose: 200.0 mg/kg/injection, schedule: Q01DX009 (ip), vehicle: Klucel (hydroxypropylcellulose) (HPC)) was 100 % of control. The T/C [8] was 104 % of control and the T/C (dose: 400.0 mg/kg/injection, schedule: Q04DX003 (ip), vehicle: Klucel (hydroxypropylcellulose) (HPC)) was 109 % of control.

With `CCCCCCC(=O)/C=C/c1cccc(Cl)c1` the T/C (dose: 100.0 mg/kg/injection, schedule: Q04DX003 (ip), vehicle: saline) was 88 % of control and the T/C (dose: 400.0 mg/kg/injection, schedule: Q04DX003 (ip), vehicle: saline) was 100 % of control.

In the case of `CCSc1ncc(Br)c(Sc2nc(N)nc3nc[nH]c23)n1`, the T/C [9] is reported as 86 % of control.

For `CN/N=C/c1cccnc1`, the T/C (dose: 12.5 mg/kg/injection, schedule: Q01DX009 (ip), vehicle: saline) was 97 % of control, the T/C (dose: 25.0 mg/kg/injection, schedule: Q01DX009 (ip), vehicle: saline) was 95 % of control and the T/C [3] was 105 % of control. The T/C (dose: 50.0 mg/kg/injection, schedule: Q01DX009 (ip), vehicle: saline) was 95 % of control.

In the case of `O=S(=O)(F)c1ccc2nc(-c3cccc(Sc4ccccc4)c3)cc(Cl)c2c1`, the T/C [9] is reported as 90 % of control, the T/C [10] is reported as 100 % of control and the T/C (dose: 400.0 mg/kg/injection, schedule: Q04DX003 (ip), vehicle: saline with Tween-80) is reported as 100 % of control.

`CC1=C2CC(C)(C)/C=C\C(=O)/C(C)=C\C3=C[C@H](C)C[C@]3(O2)C1=O` was tested, and the T/C (dose: 0.5 mg/kg/injection, schedule: Q01DX010 (ip), vehicle: carboxymethylcellulose (CMC)) was 100 % of control, the T/C (dose: 1.0 mg/kg/injection, schedule: Q01DX010 (ip), vehicle: carboxymethylcellulose (CMC)) was 100 % of control and the T/C (dose: 2.0 mg/kg/injection, schedule: Q01DX010 (ip), vehicle: carboxymethylcellulose (CMC)) was 100 % of control. For the same molecule, the T/C (dose: 4.0 mg/kg/injection, schedule: Q01DX010 (ip), vehicle: carboxymethylcellulose (CMC)) was 104 % of control and the T/C (dose: 8.0 mg/kg/injection, schedule: Q01DX010 (ip), vehicle: carboxymethylcellulose (CMC)) was 95 % of control.

`O=C1NNCc2c1oc1ccccc21` was tested, and the T/C [3] was 96 % of control, the T/C [4] was 114 % of control and the T/C [5] was 90 % of control.

In the case of `Oc1ccc(Cl)cc1Br`, the T/C [2] is reported as 110 % of control, the T/C [3] is reported as 115 % of control and the T/C [4] is reported as 110 % of control.
